# Assay results: patent US12037322B2, “AHR agonists” (Eli Lilly and Company, priority 2021, dated 2024)
# pEC50: −log10 of the molar value.
# Target: T1, hAHR (Homo sapiens, UniProt P35869)
# T1 construct: expressed in transfected cells
# T1 sequence (P35869 11-848): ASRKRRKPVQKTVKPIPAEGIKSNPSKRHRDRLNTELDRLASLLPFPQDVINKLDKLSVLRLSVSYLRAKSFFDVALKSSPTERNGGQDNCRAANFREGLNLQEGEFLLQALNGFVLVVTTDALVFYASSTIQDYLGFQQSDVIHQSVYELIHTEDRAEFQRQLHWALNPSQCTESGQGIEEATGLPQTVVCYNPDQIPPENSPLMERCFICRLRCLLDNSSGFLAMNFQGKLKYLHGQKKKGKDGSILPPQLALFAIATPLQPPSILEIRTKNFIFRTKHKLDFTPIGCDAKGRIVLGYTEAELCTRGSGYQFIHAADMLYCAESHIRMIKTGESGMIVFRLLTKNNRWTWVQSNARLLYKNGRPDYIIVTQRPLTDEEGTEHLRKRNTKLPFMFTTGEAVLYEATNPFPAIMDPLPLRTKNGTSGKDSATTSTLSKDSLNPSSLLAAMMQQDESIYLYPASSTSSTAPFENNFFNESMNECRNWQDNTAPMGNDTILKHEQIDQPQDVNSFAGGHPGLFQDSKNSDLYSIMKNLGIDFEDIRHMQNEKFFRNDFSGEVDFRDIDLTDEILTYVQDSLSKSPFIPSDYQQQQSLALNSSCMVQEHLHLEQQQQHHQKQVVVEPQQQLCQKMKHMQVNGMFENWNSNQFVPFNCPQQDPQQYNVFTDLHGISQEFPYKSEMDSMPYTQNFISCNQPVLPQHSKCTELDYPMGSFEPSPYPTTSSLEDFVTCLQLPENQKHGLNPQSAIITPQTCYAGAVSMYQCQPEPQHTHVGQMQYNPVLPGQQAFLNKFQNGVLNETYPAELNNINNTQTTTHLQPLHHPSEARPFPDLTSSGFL
# Assay: hAHR nuclear translocation assay
# Type: cell-based
# Conditions: Jump-In T-REx HEK293 cells expressing AhR-EGFP; 45 min incubation; ratio of EGFP intensity in nuclear over cytosol; 20-point curve
# Protocol: Stable cell lines were established using Jump-In™ T-REx™ HEK293 Retargeting Kit (Life Technologies). hAhR cDNA was cloned into the pJTI R4 CMV-TO EGFP vector. The EGFP was cloned to the C-terminal of AHR to form AhR-EGFP chimera. The pJTI R4 CMV-TO AhR-EGFP vector was transfected using FuGENE® HD into Jump-In™ T-REx™ HEK293 cells. Transfected cells were selected using 2.5 mg/ml G418 for 10 to 14 days, then expanded, harvested, and suspended in freeze media (FBS with 8% DMSO) at 2×10^7 cells/mL, and aliquots were stored in liquid nitrogen. One day before the assay date, cells were thawed and resuspended in DMEM with 5% FBS in the presence of 1 μg/mL Doxycycline and plated into ploy-L-Lysine coated […]-384 ULTRA Microplates (Perkin Elmer) at 12,000 to 15,000 cells per well and incubated at 37° C. and 5% CO2 overnight. On the assay date, compound was serially diluted (1:2) into 384-well nunc plates with DMSO using acoustic dispensing (ECHO). The dose response was a 20-point curve. Compound was resuspended in 40 μL of DMEM plus 0.1% BSA. The culture media was damped and 25 μL of DMEM plus 0.1% BSA was added, then 25 μL of compound in DMEM plus 0.1% BSA was added into cell plates. Cells were incubated with compounds at 37° C. and 5% CO2 for 45 min.
# The final DMSO concentration was 0.2%. The media was damped after 45 minutes incubation. The cells were fixed with 40 μL of cold MeOH (−20° C.) for 20 min. The MeOH was damped and 50 μL of DPBS containing 1 μg/mL Hochst was added into the cell plates. The intensity of EGFP was quantitated by using OPERA PHENIX® or Operetta™ high content image system (Perkin Elmer) with 20× Water Objective and five field per well. The ratio of EGFP fluorescent intensity in nuclear over cytosol was analyzed using a 4-parameter nonlinear logistic equation to determine the potency of AhR agonists.
row,SMILES,pEC50
1,"CC1CCc2c1cc(C(=O)Nc1ccc(F)cn1)c(=O)n2C (single isomer, unassigned) [Example 57, N-(5-Fluoro-2-pyridyl)-1,5-dimethyl-2-oxo-6,7-dihydro-5H-cyclopenta[b]pyridine-3-carboxamide]",8.74
2,"CC1CCc2c1cc(C(=O)Nc1ncc(C(F)(F)F)cn1)c(=O)n2C (single isomer, unassigned) [Example 64, 1,5-Dimethyl-2-oxo-N-[5-(trifluoromethyl)pyrimidin-2-yl]-6,7-dihydro-5H-cyclopenta[b]pyridine-3-carboxamide]",8.81
3,"Cn1c2c(cc(C(=O)Nc3ccc(F)cn3)c1=O)CC(C)(C)C2 [Example 48, N-(5-Fluoro-2-pyridyl)-1,6,6-trimethyl-2-oxo-5,7-dihydrocyclopenta[b]pyridine-3-carboxamide]",7.95
4,"C[C@@H]1CCc2c1cc(C(=O)Nc1ccccc1)c(=O)n2C [Example 66, (5R)-1,5-Dimethyl-2-oxo-N-phenyl-6,7-dihydro-5H-cyclopenta[b]pyridine-3-carboxamide]",9.28
5,"CC1CCc2c1cc(C(=O)NC1CCCC1)c(=O)n2C (stereo not drawn) [Example 9, N-Cyclopentyl-1,5-dimethyl-2-oxo-6,7-dihydro-5H-cyclopenta[b]pyridine-3-carboxamide]",6.72
6,"C[C@H]1CCc2c1cc(C(=O)Nc1nnc(C(F)(F)F)o1)c(=O)n2C [Example 11, (5S)-1,5-Dimethyl-2-oxo-N-[5-(trifluoromethyl)-1,3,4-oxadiazol-2-yl]-6,7-dihydro-5H-cyclopenta[b]pyridine-3-carboxamide]",7.19
7,"Cn1c2c(c(O)c(C(=O)Nc3ccc(F)cn3)c1=O)C(C)(C)CC2 [Example 44, N-(5-Fluoro-2-pyridyl)-4-hydroxy-1,5,5-trimethyl-2-oxo-6,7-dihydrocyclopenta[b]pyridine-3-carboxamide]",8.62
8,"CC1CCc2c1c(O)c(C(=O)Nc1ncccc1F)c(=O)n2C (single isomer, unassigned) [Example 92, N-(3-Fluoro-2-pyridyl)-4-hydroxy-1,5-dimethyl-2-oxo-6,7-dihydro-5H-cyclopenta[b]pyridine-3-carboxamide]",8.84
9,"COc1cnc(NC(=O)c2c(O)c3c(n(C)c2=O)CCC3C)nc1 (single isomer, unassigned) [Example 101, 4-Hydroxy-N-(5-methoxypyrimidin-2-yl)-1,5-dimethyl-2-oxo-6,7-dihydro-5H-cyclopenta[b]pyridine-3-carboxamide]",8.22
10,"CC1CCc2c1c(O)c(C(=O)Nc1ncc(F)cn1)c(=O)n2C (single isomer, unassigned) [Example 96, N-(5-Fluoropyrimidin-2-yl)-4-hydroxy-1,5-dimethyl-2-oxo-6,7-dihydro-5H-cyclopenta[b]pyridine-3-carboxamide]",9.22
11,"CC1CCc2c1cc(C(=O)Nc1ccc(C(F)(F)F)cn1)c(=O)n2C (single isomer, unassigned) [Example 59, 1,5-Dimethyl-2-oxo-N-[5-(trifluoromethyl)-2-pyridyl]-6,7-dihydro-5H-cyclopenta[b]pyridine-3-carboxamide]",8.44
12,"Cn1c2c(cc(C(=O)Nc3ccccc3)c1=O)CC(C)(C)C2 [Example 47, 1,6,6-Trimethyl-2-oxo-N-phenyl-5,7-dihydrocyclopenta[b]pyridine-3-carboxamide]",9.10
13,"CC1CCc2c1cc(C(=O)Nc1ncc(F)cn1)c(=O)n2C (stereo not drawn) [Example 1, N-(5-Fluoropyrimidin-2-yl)-1,5-dimethyl-2-oxo-6,7-dihydro-5H-cyclopenta[b]pyridine-3-carboxamide]",8.01
14,"C[C@H]1CCc2c1cc(C(=O)Nc1nnc(C(F)(F)F)s1)c(=O)n2C [Example 10, (5S)-1,5-Dimethyl-2-oxo-N-[5-(trifluoromethyl)-1,3,4-thiadiazol-2-yl]-6,7-dihydro-5H-cyclopenta[b]pyridine-3-carboxamide]",7.86
15,"C[C@H]1CCc2c1cc(C(=O)Nc1cnsc1)c(=O)n2C [Example 21, (5S)-N-Isothiazol-4-yl-1,5-dimethyl-2-oxo-6,7-dihydro-5H-cyclopenta[b]pyridine-3-carboxamide]",8.33
16,"CC1CCc2c1cc(C(=O)Nc1nccc(C(F)(F)F)n1)c(=O)n2C (stereo not drawn) [Example 7, 1,5-Dimethyl-2-oxo-N-[4-(trifluoromethyl)pyrimidin-2-yl]-6,7-dihydro-5H-cyclopenta[b]pyridine-3-carboxamide]",8.08
17,"CC1CCc2c1c(O)c(C(=O)Nc1ncccc1F)c(=O)n2C (single isomer, unassigned) [Example 91, N-(3-Fluoro-2-pyridyl)-4-hydroxy-1,5-dimethyl-2-oxo-6,7-dihydro-5H-cyclopenta[b]pyridine-3-carboxamide]",8.31
18,"Cn1c2c(cc(C(=O)Nc3ccc(F)cn3)c1=O)CC(C)(C)CC2 [Example 49, N-(5-Fluoro-2-pyridyl)-1,6,6-trimethyl-2-oxo-7,8-dihydro-5H-quinoline-3-carboxamide]",8.69
19,"CC1CCc2c1cc(C(=O)Nc1ccc(F)cn1)c(=O)n2C (stereo not drawn) [Example 2, N-(5-Fluoro-2-pyridyl)-1,5-dimethyl-2-oxo-6,7-dihydro-5H-cyclopenta[b]pyridine-3-carboxamide]",8.01
20,"C[C@@H]1CCc2c1c(O)c(C(=O)Nc1ncccn1)c(=O)n2C (single isomer, unassigned) [Example 86, 4-Hydroxy-1,5-dimethyl-2-oxo-N-pyrimidin-2-yl-6,7-dihydro-5H-cyclopenta[b]pyridine-3-carboxamide]",8.11
21,"CC1CCc2c1c(O)c(C(=O)Nc1ncc(F)cn1)c(=O)n2C (single isomer, unassigned) [Example 95, N-(5-Fluoropyrimidin-2-yl)-4-hydroxy-1,5-dimethyl-2-oxo-6,7-dihydro-5H-cyclopenta[b]pyridine-3-carboxamide]",8.92
22,"CC1Cc2c(O)c(C(=O)Nc3ccccn3)c(=O)n(C)c2C1 (single isomer, unassigned) [Example 88, 4-Hydroxy-1,6-dimethyl-2-oxo-N-(2-pyridyl)-6,7-dihydro-5H-cyclopenta[b]pyridine-3-carboxamide]",9.05
23,"C[C@@H]1CCc2c1cc(C(=O)Nc1ccns1)c(=O)n2C [Example 16, (5R)-N-Isothiazol-5-yl-1,5-dimethyl-2-oxo-6,7-dihydro-5H-cyclopenta[b]pyridine-3-carboxamide]",8.87
24,"CC1CCc2c1cc(C(=O)Nc1nccs1)c(=O)n2C (single isomer, unassigned) [Example 62, 1,5-Dimethyl-2-oxo-N-thiazol-2-yl-6,7-dihydro-5H-cyclopenta[b]pyridine-3-carboxamide]",8.74
25,"Cc1nc2ccc(NC(=O)c3cc4c(n(C)c3=O)CCC(C)(C)C4)cc2o1 [Example 50, 1,6,6-Trimethyl-N-(2-methyl-1,3-benzoxazol-6-yl)-2-oxo-7,8-dihydro-5H-quinoline-3-carboxamide]",8.08
26,"CC1CCc2c1c(O)c(C(=O)Nc1ncc(Cl)cn1)c(=O)n2C (single isomer, unassigned) [Example 93, N-(5-Chloropyrimidin-2-yl)-4-hydroxy-1,5-dimethyl-2-oxo-6,7-dihydro-5H-cyclopenta[b]pyridine-3-carboxamide]",8.97
27,"CC1CCc2c1cc(C(=O)Nc1ccc(F)cn1)c(=O)n2C (single isomer, unassigned) [Example 56, N-(5-Fluoro-2-pyridyl)-1,5-dimethyl-2-oxo-6,7-dihydro-5H-cyclopenta[b]pyridine-3-carboxamide]",8.61
